Assay results as given in patent publication US20180314077A1, “DRUG SUSTAINED-RELEASING MEDICAL CONTACT LENS” (NOF CORPORATION, priority 2015, published 2018).
Where a name gives a salt, the structure may show the parent alone.

Conditions: not given
Excerpt: The solubility of the drug (Q) to be used in the drug sustained-releasing medical contact lens of the present invention in water may be calculated by using the following equation.

Compound	Solubility in water
O=C(O)C(=O)Nc1cccc(-c2nnn[nH]2)c1 [acitazanolast hydrate]	0.55%
Nc1nc2c(ncn2COCCO)c(=O)[nH]1 [acyclovir]	0.16%
CCNC(=O)CCC/C=C\C[C@@H]1[C@@H](/C=C/[C@@H](O)CCc2ccccc2)[C@H](O)C[C@@H]1O [bimatoprost]	0.55%
CCN[C@H]1CN(CCCOC)S(=O)(=O)c2sc(S(N)(=O)=O)cc21 [brinzolamide]	0.055%
CCCC(=O)N1CCCN(c2nc(N)c3cc(OC)c(OC)cc3n2)CC1 [bunazosin hydrochloride]	0.55%
CO/N=C(\C(=O)N[C@@H]1C(=O)N2C(C(=O)O)=C(CSc3nnnn3C)CS[C@H]12)c1csc(N)n1 [cefmenoxime]	0.055%
C[C@@H]1C[C@H]2[C@@H]3CCC4=CC(=O)C=C[C@]4(C)[C@@]3(F)[C@@H](O)C[C@]2(C)[C@@]1(O)C(=O)COC(=O)c1cccc(S(=O)(=O)[O-])c1.[Na+] [dexamethasone sodium sulfobenzoate]	0.55%
C[C@@H]1C[C@H]2[C@@H]3CCC4=CC(=O)C=C[C@]4(C)[C@@]3(F)[C@@H](O)C[C@]2(C)[C@@]1(O)C(=O)CO [dexamethasone]	0.01%
O=C(O)Cc1ccccc1Nc1c(Cl)cccc1Cl [diclofenac sodium]	0.24%
CC(=O)[C@@]1(O)CC[C@H]2[C@@H]3C[C@H](C)C4=CC(=O)C=C[C@]4(C)[C@@]3(F)[C@@H](O)C[C@@]21C [fluorometholone]	0.003%
COc1c(N2CCNC(C)C2)c(F)cc2c(=O)c(C(=O)O)cn(C3CC3)c12 (centres unmarked) [gatifloxacin]	0.55%
CC(=O)OCC(=O)[C@@]1(O)CC[C@H]2[C@@H]3CCC4=CC(=O)CC[C@]4(C)[C@H]3[C@@H](O)C[C@@]21C [hydrocortisone acetate]	0.0014%
COc1ccc2c(c1)c(CC(=O)O)c(C)n2C(=O)c1ccc(Cl)cc1 [indomethacin]	0.00009%
CCCCCCCC(=O)CC[C@@H]1[C@@H](C/C=C\CCCC(=O)OC(C)C)[C@@H](O)C[C@H]1O [isopropyl unoprostone]	0.01%
CN1CCC(=C2c3ccccc3CC(=O)c3sccc32)CC1 [ketotifen fumarate]	0.55%
CC(C)OC(=O)CCC/C=C\C[C@@H]1[C@@H](CC[C@@H](O)CCc2ccccc2)[C@H](O)C[C@@H]1O [latanoprost]	0.01%

Compound	Solubility in water
C[C@@H]1CN([C@H]2CC[C@](C#N)(c3ccc(F)cc3)CC2)CC[C@]1(C(=O)O)c1ccccc1 [levocabastine hydrochloride]	0.01%
CCn1cc(C(=O)O)c(=O)c2cc(F)c(N3CCNC(C)C3)c(F)c21 (centres unmarked) [lomefloxacin hydrochloride]	0.55%
NC(=O)Cc1cccc(C(=O)c2ccccc2)c1N [nepafenac]	0.01%
CCn1cc(C(=O)O)c(=O)c2cc(F)c(N3CCNCC3)cc21 [norfloxacin]	0.01%
CN(C)CC/C=C1/c2ccccc2COc2ccc(CC(=O)O)cc21 [olopatadine hydrochloride]	2.15%
O=C(O)c1cc(O)c2c3nc4ccccc4oc-3cc(=O)c2n1 [pirenoxine]	0.01%
CC(C(=O)O)c1ccc2c(c1)Cc1cccnc1O2 (centres unmarked) [pranoprofen]	0.01%
O=C(NC(Cc1cc(=O)[nH]c2ccccc12)C(=O)O)c1ccc(Cl)cc1 (centres unmarked) [rebamipide]	0.01%
CC(C)OC(=O)CCC/C=C\C[C@@H]1[C@@H](/C=C/C(F)(F)COc2ccccc2)[C@H](O)C[C@@H]1O [tafluprost]	0.01%
NC1CCN(c2nc3c(cc2F)c(=O)c(C(=O)O)cn3-c2ccc(F)cc2F)C1 (centres unmarked) [tosufloxacin tosilate hydrate]	0.01%
COc1ccc(/C=C/C(=O)Nc2ccccc2C(=O)O)cc1OC [tranilast]	0.01%
CC(C)OC(=O)CCC/C=C\C[C@@H]1[C@@H](/C=C/[C@@H](O)COc2cccc(C(F)(F)F)c2)[C@H](O)C[C@@H]1O [travoprost]	0.01%
cyanocobalamin	2.15%
sodium azulene sulfonate hydrate	2.15%
sodium hyaluronate	2.15%

Same assay, conditions: water at 25° C.; 0.01 g of drug / mass of water needed for dissolving x100

Compound	Solubility in water
CC(C)c1ccc2oc3nc(N)c(C(=O)O)cc3c(=O)c2c1 [amlexanox]	0.01%
